From US10765114B2, “4-amino-6-(pyridyl and 2-substitutedphenyl)-picolinates and 6-amino-2-(pyridyl and 2-substitutedphenyl)-pyrimidine-4-carboxylates and their use as herbicides” (Dow AgroSciences LLC, priority 2013, dated 2020)

Test system: Key Grass and Sedge Weeds as well as Grass Crops
Test: Post-Emergent Test II (Table 6)
Assay type: in vivo
Conditions: post-emergence, 336 h, CYPSS, 70 g ai/ha, 14 days after application, read-out: Visual Growth Reduction (%) 14 Days After Application CYPSS
Summary of the method: (§1)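 Seedlings are raised 7-21 days in Metro-Mix 360 (pH 6.0-6.8) under greenhouse conditions, then sprayed at the first or second true leaf stage. Application is 187 L/ha, with serial rates down to 1/16× of the highest. Plants are subirrigated, and percent injury is rated visually after 14 days.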

| Compound | pest or weed control at 70 g/ha [%] |
| --- | --- |
| COC(=O)c1nc(-c2ccc(Cl)nc2F)c(F)c(N)c1Cl [Compound 45] | 95 to 100 |

Same assay, conditions: post-emergence, 336 h, CYPSS, 140 g ai/ha, 14 days after application, read-out: Visual Growth Reduction (%) 14 Days After Application CYPSS

| Compound | pest or weed control at 140 g/ha [%] |
| --- | --- |
| COC(=O)c1nc(-c2ccc(Cl)nc2F)c(F)c(N)c1Cl [Compound 45] | 95 to 100 |

Same assay, conditions: post-emergence, 336 h, DIGSA: crabgrass (Digitaria sanguinalis), 70 g ai/ha, 14 days after application, read-out: Visual Growth Reduction (%) 14 Days After Application DIGSA

| Compound | pest or weed control at 70 g/ha [%] |
| --- | --- |
| COC(=O)c1nc(-c2ccc(Cl)nc2F)c(F)c(N)c1Cl [Compound 45] | 60 to 74 |

Same assay, conditions: post-emergence, 336 h, DIGSA: crabgrass (Digitaria sanguinalis), 140 g ai/ha, 14 days after application, read-out: Visual Growth Reduction (%) 14 Days After Application DIGSA

| Compound | pest or weed control at 140 g/ha [%] |
| --- | --- |
| COC(=O)c1nc(-c2ccc(Cl)nc2F)c(F)c(N)c1Cl [Compound 45] | 75 to 84 |

Same assay, conditions: post-emergence, 336 h, ECHSS, 70 g ai/ha, 14 days after application, read-out: Visual Growth Reduction (%) 14 Days After Application ECHSS

| Compound | pest or weed control at 70 g/ha [%] |
| --- | --- |
| COC(=O)c1nc(-c2ccc(Cl)nc2F)c(F)c(N)c1Cl [Compound 45] | 75 to 84 |

Same assay, conditions: post-emergence, 336 h, ECHSS, 140 g ai/ha, 14 days after application, read-out: Visual Growth Reduction (%) 14 Days After Application ECHSS

| Compound | pest or weed control at 140 g/ha [%] |
| --- | --- |
| COC(=O)c1nc(-c2ccc(Cl)nc2F)c(F)c(N)c1Cl [Compound 45] | 85 to 94 |

Same assay, conditions: post-emergence, 336 h, ORYSS (crop), 70 g ai/ha, 14 days after application, read-out: Visual Growth Reduction (%) 14 Days After Application ORYSS

| Compound | pest or weed control at 70 g/ha [%] |
| --- | --- |
| COC(=O)c1nc(-c2ccc(Cl)nc2F)c(F)c(N)c1Cl [Compound 45] | 0 to 29 |

Same assay, conditions: post-emergence, 336 h, ORYSS (crop), 140 g ai/ha, 14 days after application, read-out: Visual Growth Reduction (%) 14 Days After Application ORYSS

| Compound | pest or weed control at 140 g/ha [%] |
| --- | --- |
| COC(=O)c1nc(-c2ccc(Cl)nc2F)c(F)c(N)c1Cl [Compound 45] | 0 to 29 |

Same assay, conditions: post-emergence, 336 h, SETFA: giant foxtail (Setaria faberi), 70 g ai/ha, 14 days after application, read-out: Visual Growth Reduction (%) 14 Days After Application SETFA

| Compound | pest or weed control at 70 g/ha [%] |
| --- | --- |
| COC(=O)c1nc(-c2ccc(Cl)nc2F)c(F)c(N)c1Cl [Compound 45] | 45 to 59 |

Same assay, conditions: post-emergence, 336 h, SETFA: giant foxtail (Setaria faberi), 140 g ai/ha, 14 days after application, read-out: Visual Growth Reduction (%) 14 Days After Application SETFA

| Compound | pest or weed control at 140 g/ha [%] |
| --- | --- |
| COC(=O)c1nc(-c2ccc(Cl)nc2F)c(F)c(N)c1Cl [Compound 45] | 45 to 59 |

Same assay, conditions: post-emergence, 336 h, SORVU: grain sorghum (Sorghum vulgare), 70 g ai/ha, 14 days after application, read-out: Visual Growth Reduction (%) 14 Days After Application SORVU

| Compound | pest or weed control at 70 g/ha [%] |
| --- | --- |
| COC(=O)c1nc(-c2ccc(Cl)nc2F)c(F)c(N)c1Cl [Compound 45] | 30 to 44 |

Same assay, conditions: post-emergence, 336 h, SORVU: grain sorghum (Sorghum vulgare), 140 g ai/ha, 14 days after application, read-out: Visual Growth Reduction (%) 14 Days After Application SORVU

| Compound | pest or weed control at 140 g/ha [%] |
| --- | --- |
| COC(=O)c1nc(-c2ccc(Cl)nc2F)c(F)c(N)c1Cl [Compound 45] | 45 to 59 |

Same assay, conditions: post-emergence, 336 h, TRZSS (crop), 70 g ai/ha, 14 days after application, read-out: Visual Growth Reduction (%) 14 Days After Application TRZSS

| Compound | pest or weed control at 70 g/ha [%] |
| --- | --- |
| COC(=O)c1nc(-c2ccc(Cl)nc2F)c(F)c(N)c1Cl [Compound 45] | 0 to 29 |

Same assay, conditions: post-emergence, 336 h, TRZSS (crop), 140 g ai/ha, 14 days after application, read-out: Visual Growth Reduction (%) 14 Days After Application TRZSS

| Compound | pest or weed control at 140 g/ha [%] |
| --- | --- |
| COC(=O)c1nc(-c2ccc(Cl)nc2F)c(F)c(N)c1Cl [Compound 45] | 0 to 29 |

Same assay, conditions: post-emergence, 336 h, ZEAMX: maize, corn (Zea mays), 70 g ai/ha, 14 days after application, read-out: Visual Growth Reduction (%) 14 Days After Application ZEAMX

| Compound | pest or weed control at 70 g/ha [%] |
| --- | --- |
| COC(=O)c1nc(-c2ccc(Cl)nc2F)c(F)c(N)c1Cl [Compound 45] | 0 to 29 |

Same assay, conditions: post-emergence, 336 h, ZEAMX: maize, corn (Zea mays), 140 g ai/ha, 14 days after application, read-out: Visual Growth Reduction (%) 14 Days After Application ZEAMX

| Compound | pest or weed control at 140 g/ha [%] |
| --- | --- |
| COC(=O)c1nc(-c2ccc(Cl)nc2F)c(F)c(N)c1Cl [Compound 45] | 0 to 29 |

Test system: Key Broadleaf Weed and Crop Species
Test: Post-Emergent Test II (Table 5)
Assay type: in vivo
Conditions: Abutilon theophrasti, post-emergence, 336 h, ABUTH: velvetleaf (Abutilon theophrasti), application rate 70 (kg ai/ha; footnote: g ai/ha), read-out: Visual Growth Reduction (%) 14 Days After Application ABUTH
Summary of the method: as §1

| Compound | pest or weed control at 70 g/ha [%] |
| --- | --- |
| COC(=O)c1nc(-c2ccc(Cl)nc2F)c(F)c(N)c1Cl [Compound 45] | 85 to 94 |

Same assay, conditions: Abutilon theophrasti, post-emergence, 336 h, ABUTH: velvetleaf (Abutilon theophrasti), application rate 140 (kg ai/ha; footnote: g ai/ha), read-out: Visual Growth Reduction (%) 14 Days After Application ABUTH

| Compound | pest or weed control at 140 g/ha [%] |
| --- | --- |
| COC(=O)c1nc(-c2ccc(Cl)nc2F)c(F)c(N)c1Cl [Compound 45] | 95 to 100 |

Same assay, conditions: Amaranthus retroflexus, post-emergence, 336 h, AMARE: redroot pigweed (Amaranthus retroflexus), application rate 70 (kg ai/ha; footnote: g ai/ha), read-out: Visual Growth Reduction (%) 14 Days After Application AMARE

| Compound | pest or weed control at 70 g/ha [%] |
| --- | --- |
| COC(=O)c1nc(-c2ccc(Cl)nc2F)c(F)c(N)c1Cl [Compound 45] | 95 to 100 |

Same assay, conditions: Amaranthus retroflexus, post-emergence, 336 h, AMARE: redroot pigweed (Amaranthus retroflexus), application rate 140 (kg ai/ha; footnote: g ai/ha), read-out: Visual Growth Reduction (%) 14 Days After Application AMARE

| Compound | pest or weed control at 140 g/ha [%] |
| --- | --- |
| COC(=O)c1nc(-c2ccc(Cl)nc2F)c(F)c(N)c1Cl [Compound 45] | 95 to 100 |

Same assay, conditions: Brassica napus, post-emergence, 336 h, BRSSS: oilseed rape, canola (Brassica napus), application rate 70 (kg ai/ha; footnote: g ai/ha), read-out: Visual Growth Reduction (%) 14 Days After Application BRSSS

| Compound | pest or weed control at 70 g/ha [%] |
| --- | --- |
| COC(=O)c1nc(-c2ccc(Cl)nc2F)c(F)c(N)c1Cl [Compound 45] | 0 to 29 |

Same assay, conditions: Brassica napus, post-emergence, 336 h, BRSSS: oilseed rape, canola (Brassica napus), application rate 140 (kg ai/ha; footnote: g ai/ha), read-out: Visual Growth Reduction (%) 14 Days After Application BRSSS

| Compound | pest or weed control at 140 g/ha [%] |
| --- | --- |
| COC(=O)c1nc(-c2ccc(Cl)nc2F)c(F)c(N)c1Cl [Compound 45] | 30 to 44 |

Same assay, conditions: Chenopodium album, post-emergence, 336 h, CHEAL: lambsquarters (Chenopodium album), application rate 70 (kg ai/ha; footnote: g ai/ha), read-out: Visual Growth Reduction (%) 14 Days After Application CHEAL

| Compound | pest or weed control at 70 g/ha [%] |
| --- | --- |
| COC(=O)c1nc(-c2ccc(Cl)nc2F)c(F)c(N)c1Cl [Compound 45] | 95 to 100 |

Same assay, conditions: Chenopodium album, post-emergence, 336 h, CHEAL: lambsquarters (Chenopodium album), application rate 140 (kg ai/ha; footnote: g ai/ha), read-out: Visual Growth Reduction (%) 14 Days After Application CHEAL

| Compound | pest or weed control at 140 g/ha [%] |
| --- | --- |
| COC(=O)c1nc(-c2ccc(Cl)nc2F)c(F)c(N)c1Cl [Compound 45] | 95 to 100 |

Same assay, conditions: Euphorbia heterophylla, post-emergence, 336 h, EPHHL: wild poinsettia (Euphorbia heterophylla), application rate 70 (kg ai/ha; footnote: g ai/ha), read-out: Visual Growth Reduction (%) 14 Days After Application EPHHL

| Compound | pest or weed control at 70 g/ha [%] |
| --- | --- |
| COC(=O)c1nc(-c2ccc(Cl)nc2F)c(F)c(N)c1Cl [Compound 45] | 30 to 44 |

Same assay, conditions: Euphorbia heterophylla, post-emergence, 336 h, EPHHL: wild poinsettia (Euphorbia heterophylla), application rate 140 (kg ai/ha; footnote: g ai/ha), read-out: Visual Growth Reduction (%) 14 Days After Application EPHHL

| Compound | pest or weed control at 140 g/ha [%] |
| --- | --- |
| COC(=O)c1nc(-c2ccc(Cl)nc2F)c(F)c(N)c1Cl [Compound 45] | 45 to 59 |

Same assay, conditions: Helianthus annuus, post-emergence, 336 h, HELAN: sunflower (Helianthus annuus), application rate 70 (kg ai/ha; footnote: g ai/ha), read-out: Visual Growth Reduction (%) 14 Days After Application HELAN

| Compound | pest or weed control at 70 g/ha [%] |
| --- | --- |
| COC(=O)c1nc(-c2ccc(Cl)nc2F)c(F)c(N)c1Cl [Compound 45] | 95 to 100 |

Same assay, conditions: Helianthus annuus, post-emergence, 336 h, HELAN: sunflower (Helianthus annuus), application rate 140 (kg ai/ha; footnote: g ai/ha), read-out: Visual Growth Reduction (%) 14 Days After Application HELAN

| Compound | pest or weed control at 140 g/ha [%] |
| --- | --- |
| COC(=O)c1nc(-c2ccc(Cl)nc2F)c(F)c(N)c1Cl [Compound 45] | 95 to 100 |

Same assay, conditions: Viola tricolor, post-emergence, 336 h, VIOTR: wild pansy (Viola tricolor), application rate 70 (kg ai/ha; footnote: g ai/ha), read-out: Visual Growth Reduction (%) 14 Days After Application VIOTR

| Compound | pest or weed control at 70 g/ha [%] |
| --- | --- |
| COC(=O)c1nc(-c2ccc(Cl)nc2F)c(F)c(N)c1Cl [Compound 45] | 75 to 84 |

Same assay, conditions: Viola tricolor, post-emergence, 336 h, VIOTR: wild pansy (Viola tricolor), application rate 140 (kg ai/ha; footnote: g ai/ha), read-out: Visual Growth Reduction (%) 14 Days After Application VIOTR

| Compound | pest or weed control at 140 g/ha [%] |
| --- | --- |
| COC(=O)c1nc(-c2ccc(Cl)nc2F)c(F)c(N)c1Cl [Compound 45] | 95 to 100 |

Test system: not given
Test: not given
Conditions: not given

| melting point [°C] | Compound |
| --- | --- |
| 190 to 191 | COC(=O)c1nc(-c2ccc(Cl)nc2F)c(F)c(N)c1Cl [Compound 45] |
